Measurements: patent US20150192564A1, “PROFILING REACTIVE OXYGEN, NITROGEN AND HALOGEN SPECIES” (ENZO LIFE SCIENCES, INC., C/O ENZO BIOCHEM, INC, priority 2008, published 2015)
Like-named read-outs stand apart in the source and are kept apart here.

Legend:
HeLa cells [1] = assay: Kinetic changes in levels of NO and ROS in HeLa cells, wide-field fluorescence microscopy (Example 3); assay type: cell-based, Human; settings: 1 mM L-arginine; for time after treatment at which DAQ signal (NO) was detectable: 1 μM A23187, FIG. 5A; for NO levels (DAQ signal) / ROS production (FIGS. 5B and 5C): 10-60 min treatment; for NO levels (DAQ signal): 1 μM A23187, 0.2 mM antimycin A, 0.1 mM pyocyanin or combination, FIG. 5A; for ROS production (FIGS. 5B and 5C): 0.2 mM antimycin A, 0.1 mM pyocyanin
Experimental: HeLa cells were cultured and plated as described in Example 1. On the day of the experiment, cells were loaded with 50 μM of DAQ, 1 l-1M of DCFDA and HE for 2 h, 37° C. and induced with different ROS and NO inducers (1 μM of A23187, 0.2 mM of antimycin A, 1 mM of L-arginine, 0.1 mM of pyocyanin or combination of L-arginine and pyocyanin) at 37° C. Samples for fluorescent microscopy were prepared after 10, 20, 30, 45 and 60 min of treatment as described in Example 1 and analyzed using an Olympus wide field fluorescent microscope (set of filters as described in the Table 2).

[2] = ROS-generating system: H2O2; cited from earlier work
[3] = ROS-generating system: •OH; cited from earlier work
[4] = ROS-generating system: O2•−; cited from earlier work
[5] = ROS-generating system: ROO−; cited from earlier work
[6] = ROS-generating system: NO; cited from earlier work
[7] = ROS-generating system: 1O2; cited from earlier work
[8] = ROS-generating system: ONOO−; cited from earlier work
[9] = ROS-generating system: •OCl; cited from earlier work
[10] = cited from earlier work
cells = settings: cited from earlier work
[11] = neutral pH and extremes of pH; cited from earlier work
HeLa cells [12] = assay: ROS/RNS production in HeLa cells, triple staining DAQ/DCFDA/HE, wide-field fluorescence microscopy (Example 1); assay type: cell-based, Human; settings: for effect of pretreatment on ROS production induced by pyocyanin: NAG 5 mM, 3C; for effect of pretreatment on green fluorescence upon combination treatment with L-arginine and pyocyanin: HeLa cells pretreated, ebselen 20 μM, 3D
Experimental: Human cervical adenocarcinoma epithelial cell line HeLa was obtained from ATCC (ATTC, Manassas, Va.) and was routinely cultured in Dulbecco's modified eagle medium with low glucose (Sigma-Aldrich, St. Louis, Mo.), supplemented with 10% fetal bovine serum heat inactivated (ATCC) and 100 U/ml penicillin, […] streptomycin (Sigma). Cell cultures were maintained in an incubator at 37° C., with 5% CO2 atmosphere. Three ROS/RNS fluorescent probes were dissolved in anhydrous DMF at the following concentrations: DAQ-20 mM (a 400× stock solution), DCFDA-5 mM (a 5000× stock solutions), DHE-5 mM (a 5000× stock solution). Anhydrous organic solvents should be used with DMF being the first choice, since DMSO is a hydroxyl radical scavenger and its presence may affect ROS/RNS production in cellular systems. Stock solutions of the dyes were aliquoted and stored at −20° C. The day before the experiment, HeLa cells were seeded on multiwell microscope slides (Gel-Line™ Brand, Portsmouth, N.H.) at a density of 2×10^4 cells per well. On the next day, the cells were loaded with 50 μM of DAQ, 1 μM of DCFDA and HE (all dilutions were made in growth medium) for 2 h, 37° C. Then the medium containing dyes was removed, the cells were briefly washed with PBS and induced with L-arginine (1 mM), pyocyanin (100 μM) or their combination for 20 min. […] Pretreated cells were induced as described earlier, overlaid with a cover slip and observed under fluorescence microscope.

HeLa cells [13] = assay: Multiplexed ROS/RNS detection in HeLa cells by flow cytometry (Example 4); assay type: cell-based, Human; settings: for NO production (fluorescence of oxidized DAQ product in FL4): one hour treatment; for NO production (fluorescence of oxidized DAQ product in FL4) / effect of pretreatment on L-arginine-induced FL4 (NO) signal: FIG. 6 top panel
Experimental: HeLa cells were cultured as described in Example 1. The day before the experiment, the cells were seeded in 6-well tissue culture dishes at a density of 5×10^5 cells per well. On the day of the experiment, the cells were loaded with 50 μM of DAQ, 1 l-1M of DCFDA and HE (solution in culture medium) for 2 h, 37° C. and induced with L-arginine, pyocyanin or their combination, as described in Example 1. To confirm specificity and selectivity of the staining, parallel samples were treated with NAG (general ROC inhibitor) and cPTIO (general NO scavenger and NOS inhibitor). After one hour treatment, the cells were washed with PBS, trypsinized and resuspended in 0.5 ml of PBS. After resuspension, the cells were immediately analyzed by flow cytometry using FAGS Calibur instrument (or any benchtop cytometer equipped with blue and red lasers could be used). Green fluorescence of oxidized DCF was detected in the FL1 channel (excitation with 488 nm blue laser, emission detection with 530/30 BP filter), red fluorescence of DHE was detected in the FL2 channel (excitation with 488 nm blue laser, emission detection with 585/42 BP filter). Fluorescence of oxidized DAQ product was detected in the FL4 channel (excitation with 635 nm red laser, emission detection with 670 LP filter). There was substantial overlap between the oxidized dye spectra; therefore, compensation was required. For compensation purposes, singly stained samples were prepared and compensation was performed using standard protocols.

HeLa cells [14] = assay: Profiling of ROS induced in HeLa cells by different ROS inducers, DCFDA/HE staining, wide-field fluorescence microscopy (Example 2); assay type: cell-based, Human; settings: for ROS types induced (green DCF and orange HE fluorescence): HeLa cells, inducer 1 h 37° C., 0.5 mM pyrogallol, 0.1 mM pyocyanin, 0.1 mM TBHP, FIG. 4A
Experimental: For purposes of simplifying the assay description, this example was carried out with only two indicator probes, though analogous procedures were employed as in the case where three fluorophores were utilized. Human cervical carcinoma cell line HeLa was cultured as described in Example 1. The day before the experiment, the cells were seeded in multi-well microscope slides (Gel-Line™, Portsmouth, N.H.) at a density of 2×10^4 cells per well. […] After a brief wash with PBS, the cells were stained with 1 l-1M of DGFDA and HE in culture medium for 30 min, 37° C., washed twice with PBS, overlaid with a cover slip and observed under the fluorescent microscope, using green and orange filters described in the Table 2 (FIG. 4A). To perform specific profiling of ROS/RNS, parallel samples of HeLa cells were pretreated for 30 min with 5 mM NAG (general ROS scavenger, FIG. 4B), 5 mM Tiron (specific superoxide scavenger, FIG. 4C), 10 mM pyruvate (specific peroxide scavenger, FIG. 4D). Pretreated cells were induced as described, overlaid with a cover slip and observed under fluorescent microscope using the same set of filters.

[15] = HeLa cells induced 20 min, L-arginine 1 mM, pyocyanin 100 μM or combination, FIG. 3A
[16] = HeLa cells pretreated 1 h, cPTIO 20 μM, FIG. 3B
[17] = FIG. 6 middle and bottom panels
[18] = HeLa cells pretreated with 20 μM ebselen, FIG. 3D

CNc1ccc2oc(C[C@H]3O[C@@]4(CC[C@H]3C)O[C@H]([C@H](C)C(=O)c3ccc[nH]3)[C@H](C)C[C@H]4C)nc2c1C(=O)O [A23187]
time after treatment at which DAQ signal (NO) was detectable (HeLa cells [1]): 20 min

Nc1ccc(Oc2ccc3c(-c4ccccc4C(=O)O)c4ccc(=O)cc-4oc3c2)cc1 [APF, 2-[6-(4′-amino)phenoxy-3H-xanthen-3-on-9-yl]benzoic acid]
Fluorescence increase [2]: 1 | Fluorescence increase [3]: 1200 | Fluorescence increase [4]: 6 | Fluorescence increase [5]: 2 | Fluorescence increase [6]: 1 | Fluorescence increase [7]: 9 | Fluorescence increase [8]: 560 | Fluorescence increase [9]: 3600

Nc1cc2ccccc2cc1N [DAN, 2,3-diamino naphthalene]
solubility in aqueous solution [10]: poorly soluble | cellular toxicity (cells): high cellular toxicity

Nc1ccc2c(c1N)C(=O)c1ccccc1C2=O [DAQ, 1,2-diaminoanthraquinone]
pH stability [11]: stable at neutral pH, as well as at extremes of pH

O=C(O)c1ccccc1-c1c2ccc(=O)cc-2oc2cc(Oc3ccc(O)cc3)ccc12 [HPF, 2-[6-(4′-hydroxyl)phenoxy-3H-xanthen-3-on-9-yl]benzoic acid]
Fluorescence increase [2]: 2 | Fluorescence increase [3]: 730 | Fluorescence increase [4]: 8 | Fluorescence increase [5]: 17 | Fluorescence increase [6]: 6 | Fluorescence increase [7]: 5 | Fluorescence increase [8]: 120 | Fluorescence increase [9]: 6

N=C(N)NCCC[C@H](N)C(=O)O [L-arginine]
NO production (oxidized DAQ fluorescence, Cy5 filter) (HeLa cells [12]; [15]): extensive NO production | NO production (fluorescence of oxidized DAQ product in FL4) (HeLa cells [13]): induced NO production | time after treatment at which DAQ signal (NO) was detectable (HeLa cells [1]): 10 min | NO levels (DAQ signal) (HeLa cells [1]): high levels of NO production | ROS production (FIGS. 5B and 5C) (HeLa cells [1]): No significant ROS production

CC(=O)N[C@@H](CS)C(=O)O [NAG, N-acetyl-L-cysteine]
effect of pretreatment on ROS production induced by pyocyanin (HeLa cells [12]; [16]): attenuated ROS induction | general levels of NO production in pretreated cells (HeLa cells [12]; HeLa cells pretreated with 5 mM NAG, FIG. 3C): increased | effect of pretreatment on pyocyanin-induced ROS production (FL1 and FL2) (HeLa cells [13]; [17]): blocked | effect of pretreatment on L-arginine-induced FL4 (NO) signal (HeLa cells [13]): not | effect of pretreatment on production of ROS types (HeLa cells [14]; HeLa cells pretreated 30 min with 5 mM NAG, then inducers, FIG. 4B): abolished the production of all ROS types

O=C1OC2(c3cc(Cl)c(O)cc3Oc3cc(O)c(Cl)cc32)c2ccccc21 [OCFH, 2′,7′-dichlorofluorescein]
Fluorescence increase [2]: 190 | Fluorescence increase [3]: 7400 | Fluorescence increase [4]: 67 | Fluorescence increase [5]: 710 | Fluorescence increase [6]: 150 | Fluorescence increase [7]: 26 | Fluorescence increase [8]: 6600 | Fluorescence increase [9]: 86

CC(C)(C)OO [TBHP, tert-butyl hydroperoxide]
ROS types induced (green DCF and orange HE fluorescence) (HeLa cells [14]): majority of peroxide/hydroxyl radicals/peroxynitrite

O=S(=O)(O)c1cc(O)c(O)c(S(=O)(=O)O)c1 [Tiron]
effect of pretreatment on green fluorescence in pyrogallol-treated cells (HeLa cells [14]; HeLa cells pretreated 30 min, 5 mM Tiron or 10 mM pyruvate, FIG. 4C, 4D): green fluorescence was increased | effect of pretreatment on orange fluorescence (superoxide) (HeLa cells [14]; HeLa cells pretreated 30 min with 5 mM Tiron, then inducers, FIG. 4C): attenuated only orange fluorescence in all treated cells

CC1(C)N([O])C(c2ccc(C(=O)[O-])cc2)=[N+]([O-])C1(C)C.[K+] [cPTIO, 2-(4-carboxyphenyl)-4,5-dihydro-4,4,5,5-tetramethyl-1H-imidazolyl-1-oxy-3-oxide, potassium salt]
effect of pretreatment on ROS production induced by pyocyanin (HeLa cells [12]; [16]): did not affect ROS production | effect of pretreatment on NO production upon L-arginine induction (HeLa cells [12]; [16]): completely abrogated NO production | effect of pretreatment on green fluorescence upon combination treatment with L-arginine and pyocyanin (HeLa cells [12]; cPTIO 20 μM, FIG. 3B): green fluorescence decreased | effect of pretreatment on L-arginine-induced FL4 (NO) signal (HeLa cells [13]): blocked

O=c1c2ccccc2[se]n1-c1ccccc1 [ebselen, 2-phenyl-1,2-benzisoselenazol-3[2H]-one]
effect of pretreatment on levels of NO or superoxide in the combination treated sample (HeLa cells [12]; [18]): did not restore the original levels of NO or superoxide | effect of pretreatment on peroxynitrite (HeLa cells [12]; [18]): inactivated peroxynitrite upon its production | effect of pretreatment on green fluorescence upon combination treatment with L-arginine and pyocyanin (HeLa cells [12]; cPTIO 20 μM, FIG. 3B): decreased significantly

Cn1c2cccc(=O)c-2nc2ccccc21 [pyocyanin]
NO production (oxidized DAQ fluorescence, Cy5 filter) (HeLa cells [12]; [15]): did not affect NO production | superoxide production (HE fluorescence, orange filter) (HeLa cells [12]; [15]): induced superoxide production | ROS production detected in FL1 and FL2 channels (HeLa cells [13]; [17]): induced significant ROS production | NO production (fluorescence of oxidized DAQ product in FL4) (HeLa cells [13]): did not induce significant NO production | ROS types induced (green DCF and orange HE fluorescence) (HeLa cells [14]): majority of superoxide | NO levels (DAQ signal) (HeLa cells [1]): did not induce any DAQ-detectable signal | ROS production (FIGS. 5B and 5C) (HeLa cells [1]): early induction of ROS

Oc1cccc(O)c1O [pyrogallol]
ROS types induced (green DCF and orange HE fluorescence) (HeLa cells [14]): induced mostly superoxide production

antimycin A
NO levels (DAQ signal) (HeLa cells [1]): did not induce any DAQ-detectable signal | ROS production (FIGS. 5B and 5C) (HeLa cells [1]): early induction of ROS
